Assay results published in publication PMC7060200, “Selective Binding of HSC70 and its Co-Chaperones to Structural Hotspots on CFTR” (Scientific Reports, 2020).
Entries after “also recorded” stand apart in the source; their conditions may differ. Where two headings read alike, the source gives them in different places. Ends that are not written are not given here. Peptide text beside a SMILES is read from it.

What was measured:
HSC70 [1] = target: T1, HSC70 (Homo sapiens, UniProt P11142); assay: Competition ELISA: soluble peptide vs HSC70 binding to immobilized 1097-L; details: for competition of HSC70 binding to immobilized 1097-L (in words): 1 μM HSC70, soluble peptide up to 100 μM; for HSC70 binding site by competition screen (in words): 1 μM HSC70, 100 μM soluble peptide, Fig. 3c/5, cutoff twice SD of 733-L, n ≥ 4
T1 construct: made in house
T1 sequence (P11142 whole entry): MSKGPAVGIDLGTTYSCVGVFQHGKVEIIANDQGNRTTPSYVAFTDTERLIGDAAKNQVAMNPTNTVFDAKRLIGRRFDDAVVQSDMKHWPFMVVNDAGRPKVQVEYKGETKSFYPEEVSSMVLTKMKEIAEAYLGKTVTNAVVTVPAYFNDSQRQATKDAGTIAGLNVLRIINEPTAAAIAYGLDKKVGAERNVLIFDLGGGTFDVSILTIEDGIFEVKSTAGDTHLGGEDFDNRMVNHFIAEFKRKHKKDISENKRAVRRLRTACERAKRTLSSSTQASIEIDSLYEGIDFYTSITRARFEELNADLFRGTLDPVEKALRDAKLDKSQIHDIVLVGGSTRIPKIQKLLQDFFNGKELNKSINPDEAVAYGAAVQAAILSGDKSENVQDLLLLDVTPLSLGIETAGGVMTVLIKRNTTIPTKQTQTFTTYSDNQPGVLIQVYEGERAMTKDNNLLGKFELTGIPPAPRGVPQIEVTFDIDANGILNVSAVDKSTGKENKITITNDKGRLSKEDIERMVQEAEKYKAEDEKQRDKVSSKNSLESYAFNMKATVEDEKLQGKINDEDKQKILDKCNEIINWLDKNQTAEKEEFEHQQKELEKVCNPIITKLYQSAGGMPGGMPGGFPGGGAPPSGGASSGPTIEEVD
Method: (§1) HSC70, DJA1 and DJA2 were purified as His-tagged proteins, as described. HSC70 was also amplified by PCR with an N-terminal FLAG tag, inserted into pPROEXHTa (Invitrogen) and purified as described. HSC70 was stored in 100 mM KOAc, 20 mM HEPES-KOH pH 7.5, 5 mM MgOAC2 (buffer G), DJA1 and DJA2 in 500 mM NaCl, 20 mM HEPES-KOH pH 7.5, 5 mM MgOAC2 (buffer H). Avi-tagged CFTR NBD1 was purified as described.
(§2) The CFTR peptide library was designed as 15-mers with 10-residue overlaps covering the cytosolic sequences as in Fig. 1a and Supplemental Table S1. Synthetic peptides (Mimotopes, PepSet purity) contained an N-terminal biotin followed by linker sequence GSGS and the 15-mer sequence. […] Peptides were reconstituted in DMSO or water.
(§3) For peptide binding, streptavidin-coated black 96-well plates (Nunc Maxisorp, ThermoFisher) were pre-rinsed with PBS containing 0.05% Tween-20 (PBST), and 5 µM biotinylated peptides in 100 µl PBS were bound overnnight at 4 °C with agitation. Plates were washed with PBST and blocked with PBST containing 0.5% bovine serum albumin (BSA) for 1 h. After removal of blocking solution, 100 µl reactions containing chaperones at indicated concentrations were bound for 45 min at room temperature with agitation. HSC70 reactions were in buffer G containing 1 mM ATP, DJA1 and DJA2 reactions were in buffer H. For competition assays, chaperones and peptides were mixed at indicated concentrations immediately before the reactions were added to the plates. For detections, the plates were washed in PBST and 5 μM His-Probe-HRP conjugate (ThermoFisher) in 100 μL PBST added for 15 min with agitation. After washing in PBST, plates were developed using Amplex Red (ThermoFisher) according to manufacturer’s instructions, in a fluorescence plate reader (Tecan M1000).
(§4) Affinities were determined separately from binding curves and from competition curves. Data from binding of chaperones to immobilized peptides (Fig. 2a,b and Supplemental Fig. S2a–c) were fit to the equation 1/(1 − i) = (C/i)/Kd^B − b, where i is the relative saturation, C is the chaperone concentration (1 μM), Kd^B is the apparent dissociation constant from the binding data. In the plot of 1/(1 − i) against (C/i), the slope is 1/Kd^B, and −b is the intercept. […] In the plot of bi + (C/Kd^B)/i over D, the slope is 1/Kd^C, and e is the intercept. The amount of chaperone bound in the absence of competitor was set as i = 1.
(§5) Established statistical methods[71]–[73] were used to analyze the data for chaperone binding to the peptide library. First, biological and statistical outliers were identified with the Tukey method in two rounds, for biological and then statistical outliers. […] Binding data were represented as multiples of the standard deviations from the normal means. Binding in the presence of competitor peptides were shown as a fraction of binding in the absence of competitor, or the fraction competed calculated as 1 – fraction bound. Values were compared using a two-tailed unpaired Student’s t-test assuming unequal variance.

HSC70 [2] = target: T1, HSC70; assay: ELISA binding of HSC70 to immobilized biotinylated CFTR peptides
Method: as §1, §2, §3, §4, §5

DJA1 [3] = target: T2, DJA1 (Homo sapiens, UniProt P31689); assay: ELISA binding of DJA1 to immobilized biotinylated CFTR peptides; details: 2 μM DJA1, absence of ATP, immobilized 15-mer; n ≥ 3
T2 construct: made in house
Method: as §1, §2, §3, §4, §5

DJA2 [4] = target: T3, DJA2 (Homo sapiens, UniProt O60884); assay: ELISA binding of DJA2 to immobilized biotinylated CFTR peptides; details: 2 μM DJA2, absence of ATP, immobilized 15-mer; n ≥ 3
T3 construct: made in house
T3 sequence (O60884 whole entry): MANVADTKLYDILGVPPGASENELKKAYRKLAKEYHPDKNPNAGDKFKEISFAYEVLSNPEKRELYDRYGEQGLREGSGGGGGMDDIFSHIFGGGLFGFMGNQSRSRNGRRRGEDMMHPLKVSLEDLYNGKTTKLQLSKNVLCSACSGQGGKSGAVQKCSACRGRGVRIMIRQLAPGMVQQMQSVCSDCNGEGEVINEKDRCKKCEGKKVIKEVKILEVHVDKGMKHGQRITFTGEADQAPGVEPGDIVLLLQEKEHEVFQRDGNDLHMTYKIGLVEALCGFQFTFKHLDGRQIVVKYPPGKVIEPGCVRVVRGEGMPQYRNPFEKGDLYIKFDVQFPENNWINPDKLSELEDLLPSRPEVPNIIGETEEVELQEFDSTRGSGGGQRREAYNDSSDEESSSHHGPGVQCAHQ
Method: as §1, §2, §3, §4, §5

DJA1 [5] = target: T2, DJA1; assay: Competition ELISA: soluble peptide vs DJA1 binding to immobilized 1097-L; details: for competition of DJA1 binding to immobilized 1097-L (in words): 1 μM DJA1, soluble peptide up to 100 μM; for DJA1 binding site by competition screen (in words): 1 μM DJA1, 100 μM soluble peptide, Fig. 3c/5, cutoff twice SD of 733-L, n ≥ 4
Method: as §1, §2, §3, §4, §5

DJA2 [6] = target: T3, DJA2; assay: Competition ELISA: soluble peptide vs DJA2 binding to immobilized 1097-L; details: for competition of DJA2 binding to immobilized 1097-L (in words): 1 μM DJA2, soluble peptide up to 100 μM; for DJA2 binding site by competition screen (in words): 1 μM DJA2, 100 μM soluble peptide, Fig. 3c/5, cutoff twice SD of 733-L, n ≥ 4
Method: as §1, §2, §3, §4, §5

HSC70 and DJA2 = assay: Refolding of guanidine denatured luciferase by HSC70 and DJA2; format: biochemical; details: 4 μM each HSC70 and DJA2, 100 nM luciferase, 100 μM peptide (25-fold excess), 60 min, % of control without peptide; n = 3
Method: Refolding of guanidine denatured luciferase with HSC70 and DJA2 was as described. […] To monitor refolding, luciferase activity was measured in a luminometer (Berthold Sirius) with the luciferase assay kit (Promega). For co-IPs, 20 μL reaction aliquots were stopped by dilution at 4 °C to 500 μL with buffer containing 0.1% Triton X-100, 0.2% BSA and 0.04 mg/mL apyrase (Sigma). Reactions were incubated with FLAG-M2 magnetic beads (Sigma) for 1 h at 4 °C with agitation, then beads were isolated and washed with buffer G containing 0.1% Triton X-100, and eluted with 40 μL of 1 μg/mL FLAG peptide in the same buffer. Samples were analyzed on Western blots detected with antibodies against luciferase (Sigma, L2164) and the FLAG-M2 tag (Sigma, F1804).

| Molecule | competition of HSC70 binding to immobilized 1097-L (in words) (HSC70 [1]) | competition of DJA1 binding to immobilized 1097-L (in words) (DJA1 [5]) | competition of DJA2 binding to immobilized 1097-L (in words) (DJA2 [6]) | HSC70 binding site by competition screen (in words) (HSC70 [1]) | also measured |
| --- | --- | --- | --- | --- | --- |
| 488-L: NBD1 15-mer 481-495 (KIKHSGRISFCSQFS; UniProt P13569 481-495, looked up, fragment) [Peptide 488-L] | competed poorly | competed poorly | competed poorly |  | binding in peptide library screen, HSC70 (in words) (HSC70 [2]; 2 μM HSC70, with ATP, immobilized 15-mer, n ≥ 3): binding by DJA1, HSC70 and DJA2, in the original screen; binding in peptide library screen, DJA1 (in words) (DJA1 [3]): binding by DJA1, HSC70 and DJA2, in the original screen; binding in peptide library screen, DJA2 (in words) (DJA2 [4]): binding by DJA1, HSC70 and DJA2, in the original screen |
| CC[C@H](C)[C@H](NC(=O)[C@@H](NC(=O)[C@@H](NC(=O)[C@H](CS)NC(=O)[C@H](CC(=O)O)NC(=O)[C@H](C)NC(=O)[C@H](Cc1ccccc1)NC(=O)[C@H](C)NC(=O)[C@H](CCC(N)=O)NC(=O)[C@H](CCCCN)NC(=O)[C@H](CC(C)C)NC(=O)[C@@H](NC(=O)[C@@H](N)CCCNC(=N)N)[C@@H](C)O)[C@@H](C)O)C(C)C)C(=O)N[C@@H](CC(C)C)C(=O)N[C@@H](CS)C(=O)O [Peptide 1393-L] (H-RTLKQAFADCTVILC-OH) | competed all of the chaperones well | competed all of the chaperones well | competed all of the chaperones well |  | Kd (DJA2 [6]; read-out: Kd from competition curves, DJA2): 1490 nM |
| CC[C@H](C)[C@H](NC(=O)[C@H](CCCNC(=N)N)NC(=O)[C@H](Cc1c[nH]cn1)NC(=O)[C@H](CCC(=O)O)NC(=O)[C@H](CS)NC(=O)[C@H](CC(C)C)NC(=O)[C@@H](NC(=O)[C@@H](NC(=O)[C@@H](N)[C@@H](C)O)C(C)C)[C@@H](C)CC)C(=O)N[C@@H](CCC(=O)O)C(=O)N[C@@H](C)C(=O)N[C@@H](CCSC)C(=O)N[C@@H](CC(C)C)C(=O)N[C@@H](CCC(=O)O)C(=O)N[C@@H](CS)C(=O)O [Peptide 1403-L] (H-TVILCEHRIEAMLEC-OH) | competed all of the chaperones well | competed all of the chaperones well | competed all of the chaperones well |  | Kd (DJA2 [6]): 995 nM |
| DLYLLDSPF [Peptide 571-S, NBD1 9-mer] |  |  |  | bound only by DJA2 | DJA1 binding site by competition screen (in words) (DJA1 [5]): bound only by DJA2; DJA2 binding site by competition screen (in words) (DJA2 [6]): bound only by DJA2 |
| EIFESCVCK [Peptide 589-S, NBD1 9-mer] |  |  |  |  | DJA2 binding site by competition screen (in words) (DJA2 [6]): DJA2 site |
| FGVIPQKVFIFSGTF [Peptide 1293-L] | Strong, essentially saturating competition; also recorded: only competed HSC70 | only competed HSC70 | only competed HSC70 |  | HSC70 concentration at which binding reached saturation (HSC70 [2]; titration on immobilized peptide, Fig. 2a, n ≥ 6): around 1 μM |
| HRIEAMLEC [Peptide 1406-S, NBD2 9-mer] |  |  |  | HSC70 site |  |
| ILCEHRIEA [Peptide 1402-S, NBD2 9-mer] |  |  |  | HSC70 site |  |
| LRWFQMRIE [Peptide 1100-S] |  |  | competed |  |  |
| QAFADCTVI [Peptide 1394-S, NBD2 9-mer] |  |  |  | bound by HSC70, DJA2 and DJA1 | DJA1 binding site by competition screen (in words) (DJA1 [5]): bound by HSC70, DJA2 and DJA1; DJA2 binding site by competition screen (in words) (DJA2 [6]): bound by HSC70, DJA2 and DJA1 |
| SCVCKLMAN [Peptide 593-S, NBD1 9-mer] |  |  |  |  | DJA1 binding site by competition screen (in words) (DJA1 [5]): DJA1 site |
| SKLFFSWTR [Peptide 17-S] | competed HSC70 well |  |  |  | effect on luciferase refolding (in words) (HSC70 and DJA2): partial but still significant |
